In patent publication EP0618203A1, “3-O-acylated catechins and method of producing same” (MITSUI NORIN CO., LTD., priority 1993, dated 1994):

Legend:
[1] = Antioxidative activity in salad oil, Rancimat method (induction time); details: 100ppm in salad oil, 120°C, Control 3.40
Experimental: We investigated the antioxidative activity of the acylated derivatives of (-)-epigallocatechin, one of the most powerful antioxidants in tea. […] (The reaction was conducted at a temperature of 120°C).

[2] = Solubility in fats and oils (turbidity of salad oil, absorbance at 660nm); assay type: physicochemical; details: sample added to salad oil (Honen Corporation) at 100ppm; turbidity as absorbance at 660nm; Control 0.057; lower = better dissolved
Experimental: Each sample was added to salad oil (Honen Corporation) in a concentration of 100ppm, and turbidity was determined by measuring absorbance at 660nm.

OD 660 [2] | SMILES | Induction Time [1] [h]
– | CCCC(=O)O[C@@H]1Cc2c(O)cc(O)cc2O[C@@H]1c1cc(O)c(O)c(O)c1 [(-)-3-0-Butyryl epigallocatechin, (-)-3-0-butyryl-epigallocatechin] | 6.07
– | CCC(=O)O[C@@H]1Cc2c(O)cc(O)cc2O[C@@H]1c1cc(O)c(O)c(O)c1 [(-)-3-0-Propionyl epigallocatechin, (-)-3-0-propionyl epigallocatechin] | 6.02
0.277 | Oc1cc(O)c2c(c1)O[C@H](c1cc(O)c(O)c(O)c1)[C@H](O)C2 [(-)-Epigallocatechin, (-)-epigallocatechin] | 6.03
